Assay [1] deals with Streptococcus sp. 'group A'. As to the kind of experiment: Streptococcus pyogenes SK(-)GAS viability under kanamycin – luminescence, BacTiterGlo, confirmation, counter-screen for streptokinase expression inhibitor project, dose response (AID 1900). It is filed as functional, organism-based.
A further assay relates to Streptococcus. As to the kind of experiment: GAS UMAA2166 growth inhibition – luminescence, BacTiterGlo, counter-screen for streptokinase expression inhibitor project, dose response (AID 1915).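 Note: potency for reduction of bacterial viability or growth.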 It counts as functional, organism-based. In general terms: A counterscreen serves to expose hits that act by an unwanted route or on another target.
A short description of assay [2]: Luminescence Cell-Based Dose Retest to Confirm Inhibitors of Cancer Stem Cells. [Related pubchem assays (depositor defined):AID2717, AID2721]. It is filed as functional. As to conditions: Homo sapiens.
The target of another assay is T1, Protein RecA (Mycobacterium tuberculosis, UniProt P9WHJ3).
T1 sequence (P9WHJ3 whole entry): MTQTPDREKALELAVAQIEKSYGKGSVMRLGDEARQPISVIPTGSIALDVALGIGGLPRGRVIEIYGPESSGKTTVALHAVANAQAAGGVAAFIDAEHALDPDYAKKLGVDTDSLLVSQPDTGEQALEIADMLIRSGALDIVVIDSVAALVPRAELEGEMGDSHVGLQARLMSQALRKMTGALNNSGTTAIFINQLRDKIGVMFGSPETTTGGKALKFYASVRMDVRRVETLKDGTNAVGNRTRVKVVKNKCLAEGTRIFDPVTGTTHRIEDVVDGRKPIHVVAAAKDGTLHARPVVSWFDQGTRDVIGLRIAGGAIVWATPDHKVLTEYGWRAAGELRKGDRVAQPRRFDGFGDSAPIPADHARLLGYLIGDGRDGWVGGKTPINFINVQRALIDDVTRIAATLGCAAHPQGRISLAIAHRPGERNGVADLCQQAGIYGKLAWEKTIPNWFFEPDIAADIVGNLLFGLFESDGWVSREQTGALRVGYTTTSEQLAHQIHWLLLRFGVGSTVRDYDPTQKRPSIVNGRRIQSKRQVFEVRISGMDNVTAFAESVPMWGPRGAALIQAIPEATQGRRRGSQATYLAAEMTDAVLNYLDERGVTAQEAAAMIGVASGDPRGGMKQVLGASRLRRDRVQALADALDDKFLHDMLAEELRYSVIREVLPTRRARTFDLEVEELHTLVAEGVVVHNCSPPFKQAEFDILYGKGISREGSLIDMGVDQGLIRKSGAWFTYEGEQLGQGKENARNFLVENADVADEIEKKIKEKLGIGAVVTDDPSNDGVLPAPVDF
Description: Fluorescence Cell-Free Homogeneous Dose Retest to Identify Inhibitors of RecA-Intein Splicing Activity. [Related pubchem assays (depositor defined):AID2097, AID2223, AID489010, AID492950]. It counts as functional.

The target in assay [3] is T2, Replicative DNA helicase DnaB (Mycobacterium tuberculosis, UniProt P9WMR3).
T2 sequence (P9WMR3 whole entry): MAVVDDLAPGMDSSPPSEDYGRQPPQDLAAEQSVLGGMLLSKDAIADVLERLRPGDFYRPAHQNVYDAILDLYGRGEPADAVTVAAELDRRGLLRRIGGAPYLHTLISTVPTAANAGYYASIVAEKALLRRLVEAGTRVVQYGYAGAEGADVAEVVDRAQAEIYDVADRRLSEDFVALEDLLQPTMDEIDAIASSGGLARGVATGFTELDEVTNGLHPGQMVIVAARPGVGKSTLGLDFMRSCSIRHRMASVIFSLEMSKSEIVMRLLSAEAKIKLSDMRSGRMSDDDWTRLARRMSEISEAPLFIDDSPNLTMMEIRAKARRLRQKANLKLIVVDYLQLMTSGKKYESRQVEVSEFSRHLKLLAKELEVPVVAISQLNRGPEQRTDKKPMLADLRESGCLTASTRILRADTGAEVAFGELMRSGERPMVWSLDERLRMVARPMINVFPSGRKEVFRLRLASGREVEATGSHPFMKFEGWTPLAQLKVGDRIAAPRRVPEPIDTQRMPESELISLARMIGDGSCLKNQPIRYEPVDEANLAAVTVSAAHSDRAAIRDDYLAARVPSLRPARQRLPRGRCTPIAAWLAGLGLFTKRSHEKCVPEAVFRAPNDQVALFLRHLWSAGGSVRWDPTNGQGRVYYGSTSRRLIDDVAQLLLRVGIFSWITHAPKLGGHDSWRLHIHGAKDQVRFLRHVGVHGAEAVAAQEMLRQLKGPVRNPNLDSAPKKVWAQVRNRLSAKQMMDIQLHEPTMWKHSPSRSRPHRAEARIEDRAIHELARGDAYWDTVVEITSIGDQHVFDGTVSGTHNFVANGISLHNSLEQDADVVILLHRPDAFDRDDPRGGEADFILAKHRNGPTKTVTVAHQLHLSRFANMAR
As to the kind of experiment: DnaB intein splicing inhibitors, dose response, biochemical, cell-free fluorescence (AID 449749). It counts as functional.

The target in the next assay is Cytochrome P450 3A4 (Homo sapiens, UniProt P08684).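 Note: CYP3A4 tested as one member of a cytochrome P450 panel screen.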
The target in assay [4] is T3, Heat shock factor protein 1 (Mus musculus, UniProt P38532).
T3 sequence (P38532 whole entry): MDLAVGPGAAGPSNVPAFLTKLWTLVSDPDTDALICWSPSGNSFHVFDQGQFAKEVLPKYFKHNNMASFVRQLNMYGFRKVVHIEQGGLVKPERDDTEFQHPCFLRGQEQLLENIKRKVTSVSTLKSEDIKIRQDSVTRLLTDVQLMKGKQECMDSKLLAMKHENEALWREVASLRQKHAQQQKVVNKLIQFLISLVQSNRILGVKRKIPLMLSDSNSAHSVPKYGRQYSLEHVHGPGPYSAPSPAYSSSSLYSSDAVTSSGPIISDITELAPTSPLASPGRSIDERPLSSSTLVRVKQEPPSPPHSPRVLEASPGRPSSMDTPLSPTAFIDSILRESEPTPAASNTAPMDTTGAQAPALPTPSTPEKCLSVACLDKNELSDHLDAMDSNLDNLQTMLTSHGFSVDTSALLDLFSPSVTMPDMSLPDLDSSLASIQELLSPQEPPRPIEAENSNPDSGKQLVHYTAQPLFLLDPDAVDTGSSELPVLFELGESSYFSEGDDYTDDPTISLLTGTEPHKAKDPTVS
As to the kind of experiment: decrease of HSF1-responsive luciferase luminescence – cell-based, NIH3T3, dose retest, confirmation (AID 2382).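 Note: NIH3T3 fibroblasts with HSF1-driven luciferase reporter stressed by proteasome inhibitor MG132; luminescence from HSF1-driven luciferase expression after 8 hours of MG132 stress.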 It is filed as functional.

The target in a further assay is Cytochrome P450 2D6 (Homo sapiens, UniProt P10635).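 Note: CYP2D6 member of a cytochrome P450 panel assay.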
The target of assay [5] is T4, Corticotropin-releasing factor receptor 2/Corticotropin-releasing factor-binding protein (Homo sapiens, UniProt P24387+Q13324).
T4 sequence (Q13324 whole entry): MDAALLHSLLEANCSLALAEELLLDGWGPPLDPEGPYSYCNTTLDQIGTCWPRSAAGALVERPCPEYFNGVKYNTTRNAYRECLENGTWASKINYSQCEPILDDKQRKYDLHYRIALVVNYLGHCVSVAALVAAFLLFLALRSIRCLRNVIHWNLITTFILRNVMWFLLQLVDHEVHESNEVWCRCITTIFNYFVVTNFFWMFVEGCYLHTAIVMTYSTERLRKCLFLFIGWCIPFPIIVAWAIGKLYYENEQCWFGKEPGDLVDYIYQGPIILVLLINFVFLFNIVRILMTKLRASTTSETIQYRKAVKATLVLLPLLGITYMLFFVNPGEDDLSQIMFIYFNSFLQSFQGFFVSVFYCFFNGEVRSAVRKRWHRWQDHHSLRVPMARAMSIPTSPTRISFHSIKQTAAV
T4 sequence (P24387 whole entry): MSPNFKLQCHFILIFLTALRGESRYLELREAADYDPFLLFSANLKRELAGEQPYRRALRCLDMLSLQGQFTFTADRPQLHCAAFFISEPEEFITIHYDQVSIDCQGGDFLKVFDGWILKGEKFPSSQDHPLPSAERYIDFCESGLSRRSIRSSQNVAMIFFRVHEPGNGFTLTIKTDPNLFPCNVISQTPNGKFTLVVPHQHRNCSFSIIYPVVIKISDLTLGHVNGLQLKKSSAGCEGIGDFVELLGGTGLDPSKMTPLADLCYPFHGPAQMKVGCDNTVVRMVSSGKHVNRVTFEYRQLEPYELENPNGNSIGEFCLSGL
Description: activators of CRF receptor 2 with binding protein – uHTS hits, confirmation (AID 602473). Conditions: read-out: EC50_Mean. It counts as functional.

Assay [6] in a line: NIH3T3 cell viability loss – ATP luminescence, mouse fibroblasts, counter-screen, dose response (AID 2010).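 Note: cells exposed to compound for about 90 hours before reading.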 It is filed as functional, cell-based.
Assay [7] can be described thus: Trypanosoma cruzi growth suppression in host cells – NIH3T3 host cells, beta-gal luminescence, confirmation (AID 2044).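 Note: intracellular parasites grown in NIH/3T3 mouse fibroblasts as host cells; luminescent beta-galactosidase reporter signal from transgenic T. cruzi replicating inside host cells; inhibitors lower the luminescence signal.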 It counts as functional, cell-based.

The structures appear in SMILES notation. Activity calls are given as the source filed them.

As usually defined, the AC50 is the midpoint of the concentration-response curve, whichever way the signal moves.

Chain of Cytochrome P450 3A4 (P08684 whole entry): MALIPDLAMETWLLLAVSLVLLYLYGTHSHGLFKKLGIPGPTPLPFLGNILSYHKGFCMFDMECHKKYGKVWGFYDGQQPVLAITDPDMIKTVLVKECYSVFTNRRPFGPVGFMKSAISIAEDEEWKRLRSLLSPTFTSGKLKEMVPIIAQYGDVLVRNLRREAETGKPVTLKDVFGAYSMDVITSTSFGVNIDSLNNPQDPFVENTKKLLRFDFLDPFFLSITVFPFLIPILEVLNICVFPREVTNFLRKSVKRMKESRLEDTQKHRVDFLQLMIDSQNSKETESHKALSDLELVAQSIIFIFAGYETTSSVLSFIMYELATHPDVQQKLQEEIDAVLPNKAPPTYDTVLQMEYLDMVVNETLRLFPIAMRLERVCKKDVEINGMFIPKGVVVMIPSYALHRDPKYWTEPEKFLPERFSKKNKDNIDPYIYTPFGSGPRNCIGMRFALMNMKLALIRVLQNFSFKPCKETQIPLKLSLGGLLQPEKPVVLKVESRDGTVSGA
Chain of Cytochrome P450 2D6 (P10635 whole entry): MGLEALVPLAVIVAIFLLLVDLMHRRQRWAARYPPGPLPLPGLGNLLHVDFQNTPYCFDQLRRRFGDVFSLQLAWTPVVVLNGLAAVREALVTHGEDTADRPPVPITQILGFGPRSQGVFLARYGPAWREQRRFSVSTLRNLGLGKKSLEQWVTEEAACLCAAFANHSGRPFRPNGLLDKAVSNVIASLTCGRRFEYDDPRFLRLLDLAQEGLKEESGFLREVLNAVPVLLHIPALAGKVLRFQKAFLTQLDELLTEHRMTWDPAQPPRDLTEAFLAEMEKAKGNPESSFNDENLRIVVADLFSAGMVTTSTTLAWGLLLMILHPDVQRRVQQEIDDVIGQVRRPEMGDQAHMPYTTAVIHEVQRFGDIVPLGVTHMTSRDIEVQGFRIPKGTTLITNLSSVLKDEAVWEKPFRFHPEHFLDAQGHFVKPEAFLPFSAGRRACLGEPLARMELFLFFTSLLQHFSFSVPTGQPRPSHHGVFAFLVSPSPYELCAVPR

As to `CCCC1CC(C(=O)NC(C(C)Cl)C2OC(SC)C(O)C(O)C2O)N(C)C1` (centres undefined), the EC50 (in assay [1]; with Streptococcus) was < 0.06 µM (active) in each case. For `FC(F)Oc1ccc(-c2csc(NNC3=NCCCCC3)n2)cc1`, the AC50 in assay [2] is 1.77 µM (active). As to `O=C1CC/[N+](=C\c2ccccc2)[N-]1`, the EC50 on Protein RecA was 4.58 µM (active). For the same compound, the AC50 in [3] is 19.4 µM (active). For `COc1ccc(NC(=S)N(CCc2nc3cc(C)c(C)cc3[nH]2)Cc2cccnc2)cc1`, on Cytochrome P450 3A4, the AC50 was 0.891 µM (inconclusive). Regarding `CC(C)(C)c1ccc(C(=O)NC(=S)Nc2nc3c(s2)CCCC3)cc1`, in [4], the EC50 was 0.192 µM (active). In addition, in [2], the AC50 was 2.02 µM (active). For `CCn1c(=O)c(C(=O)NCCc2ccccc2)c(O)c2ccccc21`, the concentration at half-maximal activity (AC50) in [2] was 6.91 µM (active). The same measure, in the same setting: in the case of `COc1ccc(NC(=O)c2ccc(COc3ccccc3Br)o2)cc1OC` it was 1.69 µM (active).

On to `Cc1cccc(C(=O)OCC(=O)Nc2nnc(-c3ccccc3)o2)c1O`, for which the EC50 in assay [1] was 3.11 µM (active); in the assay with Streptococcus, 4.74 µM (active).

As to `CC(C)CN1CCCC2(CCN(C(=O)Oc3ccccc3)CC2)C1`, the AC50 is 20 µM (inconclusive) on Cytochrome P450 2D6 and 25.1 µM (inconclusive) at Cytochrome P450 3A4. `COC(=O)Cc1n[nH]c2c1C(c1c[nH]c3ccccc13)C(C#N)=C(N)O2` (centres undefined): the EC50 at Protein RecA is > 380 µM (inconclusive). For the same compound, the AC50 in [3] is > 380 µM (inactive). For `O=C1c2cc(Br)ccc2N(Cc2ccc(Br)cc2)S(=O)(=O)C1c1cc(Cl)c(Cl)cc1[N+](=O)[O-]` (centres undefined), the AC50 in [2] is 1.06 µM (active).

In the case of `CCNc1ncc2nc(-c3cn(C)c4ccccc34)c(=O)n(CCC#N)c2n1`, at Cytochrome P450 3A4, the AC50 was 12.6 µM (inconclusive). On to `CC1(c2ccc(OC(F)F)cc2)NC(=O)N(CC(=O)Nc2cccc(F)c2)C1=O` (centres undefined), for which, in assay [5], the EC50 is 4.52 µM (active). `CCOC(=O)c1nnn(-c2nonc2-n2cccc2)c1CCl`: the EC50 on Protein RecA is 1.42 µM (active). For the same compound, the half-maximal activity concentration (AC50) in assay [3] is 5.35 µM (active).

On to `CC(=O)OCC1=C(C(=O)O)N2C(=O)C(NC(=O)C(C)Cn3cc(Cl)cn3)C2SC1` (centres undefined), for which the figures for the EC50 (in assay [1]; with Streptococcus) were 1.39 µM (active) and 1.27 µM (active), respectively. `O=S(=O)(NC1CC(NS(=O)(=O)OCC(Cl)(Cl)Cl)C2CCCCC12)OCC(Cl)(Cl)Cl` (centres undefined): the half-maximal activity concentration (AC50) in [2] was 1.31 µM (active). As to `Cn1cc(-c2nc3cncnc3n(C3CC3)c2=O)c2ccccc21`, the AC50 on Cytochrome P450 3A4 is 7.94 µM (inconclusive).

For `O=[N+]([O-])c1cc(Cl)cc2c1nc(NCCO)c1ccccc12`, the AC50 on Cytochrome P450 3A4 is 3.16 µM (inconclusive).

As for `Cc1nc2cnc(OCc3ccccc3)nc2n(CCc2ccccc2)c1=O`, at Cytochrome P450 3A4, the AC50 is 25.1 µM (inconclusive). On to `Cc1ccccc1CS(=O)(=O)c1snnc1C`, for which the EC50 at Protein RecA was > 380 µM (inactive). In [3], the AC50 was > 380 µM (inactive). Regarding `Cc1ccc(NC(=O)C2C3CCCC2C3c2ccccc2)cc1C` (centres undefined), the AC50 at Cytochrome P450 3A4 was 8.91 µM (inconclusive). With `COC(=O)c1c(-c2ccc(OC)cc2)oc2ccc(-c3cc(OC)c(OC)c(OC)c3)cc12`, the AC50 in [2] was 5.85 µM (active). With `Fc1cccc(C2NC(S)=NC3=C2N2CCC3CC2)c1` (centres undefined), the AC50 at Cytochrome P450 2D6 was 3.16 µM (inconclusive); at Cytochrome P450 3A4 it was 25.1 µM (inconclusive). As for `Cc1[nH]c2ccc(F)cc2c1CCN(Cc1cccnc1)C(S)=Nc1ccc(F)cc1`, the EC50 is 93.4 µM (active) at Protein RecA, > 30 µM (not active) in [6] and 0.705 µM (active) in assay [7]. Also, in [3], the AC50 was 17.2 µM (active). In the case of `O=c1[nH]cc(NCCc2ccccc2)c(=O)[nH]1`, at Protein RecA, the EC50 is 10.1 µM (active). In addition, in assay [3], the AC50 was > 380 µM (inconclusive). In the same order, the values of `CCCCOc1ccc(C2C3CN(C(=O)OCC)CC=C3C(C#N)=C(N)C2(C#N)C#N)cc1OC` (centres undefined) are 29.8 µM (active) and > 380 µM (inactive). Turning to `C/C=C(/C)C(=O)OC1CC(C)(C)C[C@H]2C3=CC[C@@H]4[C@@]5(C)CCC(O[C@@H]6O[C@@H](C(=O)O)[C@@H](O)C(O[C@@H]7OC[C@H](O)[C@@H](O)[C@@H]7O[C@@H]7OC(CO)C(O)[C@@H](O)[C@@H]7O)C6O[C@@H]6OC(CO)C(O)C(O)C6O)[C@@](C)(CO)[C@@H]5CC[C@]4(C)[C@]3(C)CC(O)[C@@]12CO` (some centres undefined), the EC50 in assay [5] is 5.49 µM (active). In the case of `CCOC(=O)Cn1cc(/C=N/NC(=O)CC#N)c2ccccc21`, at Protein RecA, the EC50 is 6.38 µM (active). For the same compound, the half-maximal activity concentration (AC50) in assay [3] was 61.1 µM (active).

The record behind these values is ChEMBL document CHEMBL1201862, “PubChem BioAssay data set” (2004).
